The text below walks through data of US10786483B2, “Tumescent contravenom drug delivery” (HK Pharma, priority 2016, dated 2020).

Where two headings read alike, the source gives them in different places.

In general, IC50 refers to the concentration needed to halve the response being measured.

In one series the test system is platelet aggregation. The following applies: cited from earlier work.
For series [1], the system named is sPLA2 activity in serum. The following applies: rabbit serum; read-out: IC50, inhibitory effect on sPLA2 activity in serum; cited from earlier work.
Series [2] relates to sPLA2 activity in serum. The note with it: human serum; read-out: IC50, inhibitory effect on sPLA2 activity in serum; cited from earlier work.
The subject of series [3] is sPLA2 activity in serum. The following applies: rat serum; read-out: IC50, inhibitory effect on sPLA2 activity in serum; cited from earlier work.
The test system of another series is snake venoms. The note with it: mice; cited from earlier work.
Series [4] has as its system sPLA2 activity in serum. The following applies: guinea pig serum; read-out: IC50, inhibitory effect on sPLA2 activity in serum; cited from earlier work.
For a further series, the target named is Bee Venom sPLA2 (Apis mellifera, UniProt P00630). The following applies: cited from earlier work.
Chain of Bee Venom sPLA2 (P00630 34-167 limits assumed): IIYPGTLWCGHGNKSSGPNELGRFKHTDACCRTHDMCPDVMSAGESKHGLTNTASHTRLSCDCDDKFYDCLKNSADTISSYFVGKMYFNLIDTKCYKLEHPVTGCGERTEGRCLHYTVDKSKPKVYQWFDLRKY
Series [5] concerns lymphatic smooth muscle contraction. The note with it: rats, applied topically; cited from earlier work.
For series [6] the following is noted: 41 procedures, 14 subjects, 19.2 to 52 mg/kg, over the 24-hour study period.
Method: Volunteers participated in 1 to 2 infiltration studies without liposuction and then one study with tumescent liposuction totally by local anesthesia.
Individual subjects served as their own controls. Large volume (≥500 mL) tumescent infiltration was accomplished using a peristaltic tumescent infiltration pump (HKSurgical.com, San Clemente, Calif.).
Serum samples were obtained from a peripheral vein using an indwelling 20-gauge IV catheter by a 2-syringe sampling technique. The first syringe contained 2 mL saline to flush the IV catheter and then remove and discard 2 mL of blood.
For each subject, the initial infiltration procedures were done without subsequent liposuction, and the final tumescent infiltration was followed by liposuction after allowing at least 1 hour of detumescence for gradual dispersion of subcutaneous tumescent fluid. Tumescent infiltration procedures were separated by at least 1 week. The liposuction aspirate was collected in clear plastic volumetric canisters. After allowing at least 1 hour for gravitational separation of the lipid and aqueous aspirate, the resulting supernatant fat, infranatant blood-tinged tumescent anesthetic solution, and the total aspirate volume were recorded.
AUC∞, Cmax, and Tmax without and with liposuction were compared by the paired t test.
The nature of series [7]: tolerance interval analysis, probability that Cmax >=6 μg/mL. Details: species or system human. The following applies: 99% confidence. On the procedure: Tolerance intervals were calculated at a 99% level of confidence.
On series [8], the source says: Heart rates, before, during, and after tumescent infiltration and immediately after liposuction were compared.
The conditions of series [9]: cited from earlier work.
Series [10] is described as follows: precipitation on mixing acyclovir, lidocaine and epinephrine. It counts as physicochemical. An excerpt:
Some drugs are considered incompatible because of precipitation when mixed together in the same solution. […] This tumescent solution can be safely and painlessly injected subcutaneously into a human patient. This is surprising and unexpected because the FDA approved package insert labeling for acyclovir for IV infusion states explicitly the subcutaneous delivery must be avoided. Similar increased solubility and drug-drug compatibility of mixtures of multiple contravenom drugs can be expected with sufficient tumescent dilution. This is a unique and unexpected advantage of tumescent contravenom delivery.

Where [11] appears, read: with liposuction, epinephrine dose 1.6 to 4.3 mg.
The mark [12] stands for this setting: without liposuction, epinephrine dose 1.2 to 4.3 mg.

Turning to `CCOC(=O)c1ccc(N)cc1` [benzocaine], in the series with platelet aggregation, the “platelet aggregation induced by ADP” value is “inhibit”.
On to `CCc1c(C(=O)C(N)=O)c2c(OCC(=O)O)cccc2n1Cc1ccccc1` [Varespladib], for which the 50% inhibitory concentration (IC50) is 5 nM with sPLA2 activity in serum [1], 6.2 nM in the series on sPLA2 activity in serum [2], 8.1 nM in the series on sPLA2 activity in serum [3] and 3.2 nM in the series with sPLA2 activity in serum [4]. For the same molecule, in the series with snake venoms, the “neutralizing a wide variety of snake venoms” value is reported as “effective”.
With `CCCCN1CCCCC1C(=O)Nc1c(C)cccc1C` (centres unmarked) [bupivacaine], the “platelet aggregation induced by ADP” value with platelet aggregation is “inhibit”.
As for `CCc1c(C(=O)C(N)=O)c2c(OCC(=O)OC)cccc2n1Cc1ccccc1` [Me-Varespladib, methyl varespladib], the “IC50, sPLA2 inhibition” value at Bee Venom sPLA2 was “*Indeterminate”.
Regarding `CCN(CC)CC(=O)Nc1c(C)cccc1C` [lidocaine], the lymph transit time result in [5] is on record as “prolong”. The “survival time after injection of venom” value in series [5] is “increase”. Further, in [6], the “measured serum lidocaine concentrations, all” value is below 6 µg/mL. Moreover, the “risk of lidocaine serum concentration >6 μg/mL” value in series [7] (No liposuction, 40 mg/kg) is reported as 1/750; in [7] (No liposuction, 50 mg/kg), 1/15; in [7] (No liposuction, 55 mg/kg), 1/4; in series [7] (No liposuction, […] mg/kg) it was 1/80; in [7] (With liposuction, 50 mg/kg), 1/500; in series [7] (With liposuction, 55 mg/kg), 1/100. Also, the lidocaine-associated adverse event result in series [8] (one subject, body mass index 20, 45 mg/kg without liposuction, approximately 12 hours after infiltration) is “transient nausea”. Besides, the “recommended maximal dosage, FDA-approved package insert labeling” value in series [9] (lidocaine with epinephrine, infiltration local anesthesia) is on record as 7 mg/kg. Besides, the “maximal safe dosage recommended by American Society for Dermatologic Surgery guidelines” value in series [9] (liposuction totally by local anesthesia) is listed as 55 mg/kg. The “lidocaine concentrations that consistently inhibit in-vitro platelet aggregation” value with platelet aggregation (aggregation induced by ADP, epinephrine and collagen) is at least 0.5 mg/mL. Also, in the series with platelet aggregation (at safe systemic concentrations (e.g. ≤6 micrograms/ml)), the “effect on platelet aggregation” value was “no effect”. For the same molecule, in the series on platelet aggregation, the “platelet aggregation induced by ADP” value was “inhibit”.
In the case of `CNC[C@H](O)c1ccc(O)c(O)c1` [epinephrine], the “clinical evidence of toxicity” value in series [8] (14 subjects, 41 procedures) was “no clinical evidence”. For the same molecule, in [8] (41 studies, most patients received oral clonidine 0.1 mg), the episodes of tachycardia entry was “no episodes”. Moreover, in series [8] (setting [11]), the “mean difference in heart rate before infiltration and after liposuction” value is given as “+5”; the “range of difference in heart rate before infiltration and after liposuction” value was −12 to +33. In [8] (setting [12]), the “mean difference in heart rate before and after infiltration” value was −3.4; the “range of difference in heart rate before and after infiltration” value is on record as −24 to +17.
On to `Nc1nc2c(ncn2COCCO)c(=O)[nH]1` [acyclovir], for which the precipitation on mixing entry is given as “immediate precipitation” in [10] (1 gm acyclovir (1 g/20 ml) with 1 gram lidocaine (1 gram/100 ml) with epinephrine (1 mg/L), 120 ml mixture); “precipitation” in series [10] (1 gm acyclovir and 1 gm lidocaine in 100 ml, 250 ml and 500 ml of saline); “no precipitation” in [10] (1 gm acyclovir, 1 gm lidocaine and 1 mg epinephrine in 1000 ml of saline).
